# According to the supplement of paper PMC4314810:
# ± gives the standard deviation of the averaged measurements.
# Tested on: MCF7
# Assay: HRG-induced Akt activation (dPAkt = log2 pAkt/Akt HRG-stimulated minus log2 pAkt/Akt basal) (log2 ratio difference); higher = stronger HRG-induced Akt(T308) phosphorylation
# Settings: miRNA mimic concentration 10 nM; time after transfection 72 h; heregulin 10 ng/ml; stimulation time 1 h
# Method in brief: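 MCF7 cells were plated […] in 96-well plates and transfected in two biological replicates with a library of 879 miRNA mimics (10 nM final) using Lipofectamine RNAiMax; 72 h later they were stimulated for 1 h with 10 ng/ml heregulin-beta1 or left unstimulated. After fixation in 4% PFA, phospho-Akt(T308) and total Akt were measured by In-Cell Western on an Odyssey, with signals corrected for column-wise fixation decay. Heregulin-induced Akt activation is the stimulated minus unstimulated value of the log ratio of phospho-Akt to total Akt, averaged over replicates. That log ratio is log2(pAkt/Akt).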
row,Sequence,HRG-induced Akt activation (log2)
1,CAUAAAGUAGAAAGCACUACU,1.54 ± 0.062
2,UAACACUGUCUGGUAAAGAUGG,0.763 ± 0.24
3,GUGUGUGGAAAUGCUUCUGC,2.16 ± 0.41
4,CCCAGUGUUCAGACUACCUGUUC,1.28 ± 0.6
5,UGAGGCAGUAGAUUGAAU,1.49 ± 0.26
6,ACGGGUUAGGCUCUUGGGAGCU,1.38 ± 0.043
7,CUCUAGAGGGAAGCACUUUCUC,1.85 ± 0.4
8,AGUUAAUGAAUCCUGGAAAGU,1.46 ± 0.25
9,ACCCGUCCCGUUCGUCCCCGGA,1.513 ± 0.0044
10,UGGAGAGAAAGGCAGUUCCUGA,0.965 ± 0.16
11,CUCUAGAGGGAAGCACUUUCUG,2.15 ± 0.078
12,GCCCGCGUGUGGAGCCAGGUGU,1.39 ± 0.14
13,UUAGGCCGCAGAUCUGGGUGA,1.39 ± 0.89
14,UAAGUGCUUCCAUGUUUCAGUGG,0.9677 ± 0.0067
15,UUGGGGAAACGGCCGCUGAGUG,2.08 ± 0.097
16,GGUGCAGUGCUGCAUCUCUGGU,1.28 ± 0.0016
17,GAACGGCUUCAUACAGGAGUU,1.67 ± 0.12
18,CAAAAGUAAUUGUGGAUUUUGU,1.5 ± 0.065
19,UCGGCCUGACCACCCACCCCAC,0.936 ± 0.2
20,AAUGCACCUGGGCAAGGAUUCA,1.43 ± 0.42
21,AUGUAUGUGUGCAUGUGCAUG,1.62 ± 0.4
22,UGUAAACAUCCUACACUCUCAGC,0.867 ± 0.099

row,Sequence,HRG-induced Akt activation (log2)
1,UUCCCUUUGUCAUCCUUCGCCU,1 ± 0.3
2,UGGUAGACUAUGGAACGUAGG,0.953 ± 0.95
3,GAAGGCGCUUCCCUUUAGAGCG,1.1 ± 0.5
4,GAAAGCGCUUCUCUUUAGAGG,1.51 ± 0.33
5,ACGUUGGCUCUGGUGGUG,1.17 ± 0.014
6,UACGUAGAUAUAUAUGUAUUUU,1.5 ± 0.16
7,UCCUCUUCUCCCUCCUCCCAG,1.77 ± 0.039
8,UCACCAGCCCUGUGUUCCCUAG,1.69 ± 0.061
9,ACUCAAAACCCUUCAGUGACUU,1.79 ± 0.18
10,AUCAACAGACAUUAAUUGGGCGC,2.3 ± 0.38
11,UGGUUUACCGUCCCACAUACAU,0.811 ± 0.33
12,CGUCUUACCCAGCAGUGUUUGG,1.73 ± 0.13
13,CUGCAAUGUAAGCACUUCUUAC,0.874 ± 0.36
14,AGAUCGACCGUGUUAUAUUCGC,2.02 ± 0.14
15,UCUUCUCUGUUUUGGCCAUGUG,1.27 ± 0.041
16,CUCCGUUUGCCUGUUUCGCUG,2.07 ± 0.2
17,UUUGUGACCUGGUCCACUAACC,1.16 ± 0.88
18,CAACAAAUCCCAGUCUACCUAA,1.51 ± 0.076
19,AGGGUGUUUCUCUCAUCUCU,2.04 ± 0.21
20,CAAUUUAGUGUGUGUGAUAUUU,2 ± 0.13
21,AGAGGUAUAGGGCAUGGGAA,1.88 ± 0.23
22,UAUGUAAUAUGGUCCACAUCUU,2.01 ± 0.2

row,Sequence,HRG-induced Akt activation (log2)
1,CAAUGUUUCCACAGUGCAUCAC,1.1 ± 0.42
2,UCGACAGCACGACACUGCCUUC,1.4 ± 0.42
3,UGUGCUUGCUCGUCCCGCCCGCA,1.82 ± 0.029
4,CAAAGAAUUCUCCUUUUGGGCU,1.74 ± 0.013
5,AUCACAUUGCCAGGGAUUACC,1.54 ± 0.03
6,AGUUAGGAUUAGGUCGUGGAA,1 ± 0.39
7,GUCCAGUUUUCCCAGGAAUCCCU,1.7 ± 0.2
8,GUGCAUUGUAGUUGCAUUGCA,1.43 ± 0.074
9,AGGGACUUUCAGGGGCAGCUGU,1.48 ± 0.18
10,UCCUGUACUGAGCUGCCCCGAG,1.79 ± 0.1
11,CAAAGUUUAAGAUCCUUGAAGU,1.08 ± 0.53
12,CUUUCAGUCGGAUGUUUGCAGC,1.75 ± 0.2
13,UCAAGAGCAAUAACGAAAAAUGU,1.91 ± 0.14
14,AAGCUGCCAGUUGAAGAACUGU,1.23 ± 0.26
15,CAAGAACCUCAGUUGCUUUUGU,1.15 ± 0.34
16,UGGUUCUAGACUUGCCAACUA,1.94 ± 0.026
17,UGAGAUGAAGCACUGUAGCUC,1.18 ± 0.22
18,CCUCCCACACCCAAGGCUUGCA,1.37 ± 0.3
19,UGGAGGAGAAGGAAGGUGAUG,1.81 ± 0.038
20,UCAGUGCAUCACAGAACUUUGU,0.53 ± 0.045
21,UAAAGUGCUUAUAGUGCAGGUAG,1.57 ± 0.035
22,AGGGCCCCCCCUCAAUCCUGU,1.95 ± 0.39

row,Sequence,HRG-induced Akt activation (log2)
1,AAAUUAUUGUACAUCGGAUGAG,1.48 ± 0.61
2,UUUGGCAAUGGUAGAACUCACACU,1.75 ± 0.06
3,UUCCCUUUGUCAUCCUAUGCCU,0.793 ± 0.043
4,UACUGCAGACAGUGGCAAUCA,1.21 ± 0.45
5,CUGACCUAUGAAUUGACAGCC,1.18 ± 0.15
6,CUAUACAGUCUACUGUCUUUCC,1.85 ± 0.18
7,UAGGUAGUUUCAUGUUGUUGGG,1.86 ± 0.1
8,UGGAAUGUAAAGAAGUAUGUAU,1.76 ± 0.27
9,UGGGAACGGGUUCCGGCAGACGCUG,1.22 ± 0.16
10,ACAGAUUCGAUUCUAGGGGAAU,1.75 ± 0.2
11,CAGGAUGUGGUCAAGUGUUGUU,1.41 ± 0.093
12,CUUAUCAGAUUGUAUUGUAAUU,1.87 ± 0.024
13,CUCCUGACUCCAGGUCCUGUGU,1.43 ± 0.33
14,CUAUACGGCCUCCUAGCUUUCC,1.9 ± 0.13
15,UCACAGUGAACCGGUCUCUUU,1.04 ± 0.063
16,AUAAUACAUGGUUAACCUCUUU,1.2 ± 0.064
17,UCCAGUGCCCUCCUCUCC,1.131 ± 0.0093
18,CCAGUUACCGCUUCCGCUACCGC,1.323 ± 0.011
19,UCAGUGCAUGACAGAACUUGG,1.09 ± 0.14
20,GUGUCUUUUGCUCUGCAGUCA,1.75 ± 0.15
21,CCUGUUCUCCAUUACUUGGCUC,1.53 ± 0.36
22,UUGUGUCAAUAUGCGAUGAUGU,1.768 ± 0.00038

row,Sequence,HRG-induced Akt activation (log2)
1,ACUCGGCGUGGCGUCGGUCGUG,2.34 ± 0.17
2,UAAAGUGCUGACAGUGCAGAU,1.52 ± 0.054
3,UACUCCAGAGGGCGUCACUCAUG,1.02 ± 0.78
4,CCCAGAUAAUGGCACUCUCAA,1.55 ± 0.12
5,AGAGAAGAAGAUCAGCCUGCA,1.08 ± 0.5
6,GCGAGGACCCCUCGGGGUCUGAC,1.05 ± 0.48
7,GCUGCGCUUGGAUUUCGUCCCC,1.62 ± 0.098
8,GAUUGCUCUGCGUGCGGAAUCGAC,1.24 ± 0.29
9,UGGUGGGCACAGAAUCUGGACU,1.74 ± 0.12
10,AAUCACUAACCACACGGCCAGG,1.79 ± 0.65
11,GAAAGUGCUUCCUUUUAGAGGC,0.832 ± 0.68
12,UUCACAGGGAGGUGUCAU,1.82 ± 0.08
13,AAUGGCGCCACUAGGGUUGUG,1.42 ± 0.35
14,ACCUUCUUGUAUAAGCACUGUGCUAAA,1.54 ± 0.13
15,UAAAGUAAAUAUGCACCAAAA,1.45 ± 0.18
16,ACUUUAACAUGGAGGCACUUGC,1.41 ± 0.029
17,AGGUUGGGAUCGGUUGCAAUGCU,1.59 ± 0.021
18,AGUAUUCUGUACCAGGGAAGGU,1.96 ± 0.043
19,GCCUGCUGGGGUGGAACCUGGU,1.81 ± 0.22
